Test results published in ChEMBL document CHEMBL5113433, “Biological evaluation for anti-inflammatory effect of africane-type sesquiterpenoids” (Bioorg Med Chem, 2022).
Active and inactive are the calls of the source. No cut-off for these calls is given here.

How the values were obtained:
RAW264.7 [1] = experiment: Antiinflammatory activity in LPS-induced mouse RAW264.7 cells assessed as decrease in COX-2 expression at 10 uM pretreated for 2 hrs followed by stimulation with LPS for 22 hrs by Western blot analysis; assay type: functional, cell-based; details: time 24.0 hrs
RAW264.7 [2] = experiment: Antiinflammatory activity in LPS-induced mouse RAW264.7 cells assessed as decrease in IL-1beta expression at 6 uM pretreated for 2 hrs followed by stimulation with LPS for 6 hrs by Western blot analysis; assay type: functional, cell-based
RAW264.7 [3] = experiment: Antiinflammatory activity in LPS-induced mouse RAW264.7 cells assessed as decrease in IL-6 expression at 6 uM pretreated for 2 hrs followed by stimulation with LPS for 6 hrs by RT-PCR analysis; assay type: functional, cell-based
RAW264.7 [4] = experiment: Antiinflammatory activity in LPS-induced mouse RAW264.7 cells assessed as decrease in IL-1beta expression at 6 uM pretreated for 2 hrs followed by stimulation with LPS for 6 hrs by RT-PCR analysis; assay type: functional, cell-based
RAW264.7 [5] = experiment: Antiinflammatory activity in LPS-induced mouse RAW264.7 cells assessed as decrease in IL-6 expression at 6 uM pretreated for 2 hrs followed by stimulation with LPS for 6 hrs by Western blot analysis; assay type: functional, cell-based; details: time 8.0 hrs
[6] = Cytotoxicity against mouse RAW264.7 cells assessed as cell viability after 24 hrs by MTT assay; assay type: toxicity, cell-based
RAW264.7 [7] = experiment: Antiinflammatory activity in LPS-induced mouse RAW264.7 cells assessed as decrease in COX-2 expression pretreated for 2 hrs followed by stimulation with LPS for 22 hrs by Western blot analysis; assay type: functional, cell-based

With `CC(=O)OC[C@]1(O)CC[C@@H]2[C@@H]1CC(C)(C)C[C@H]1C[C@]12C` the Activity (RAW264.7 [1]) was “Active”.

With `CC(=O)OCC1(O)CCC2C1CC(C)(C)CC1CC12C` (single isomer, unassigned; (-)) [listing 1 of 2 here] the Activity (RAW264.7 [2]) was “Active”, the Activity (RAW264.7 [3]) was “Active” and the Activity (RAW264.7 [4]) was “Active”. The Activity (RAW264.7 [1]) was “Active” and the Activity (RAW264.7 [5]) was “Active”.

For `CC(=O)OC[C@@]1(O)CC[C@@H]2[C@@H]1CC(C)(C)C[C@H]1C[C@]12C`, the Activity (RAW264.7 [2]) was “Active”, the Activity (RAW264.7 [3]) was “Active” and the Activity (RAW264.7 [4]) was “Active”. For the same molecule, the Activity (RAW264.7 [1]) was “Active”, the IC50 at 24 h [6] was greater than 10 µM and the Activity (RAW264.7 [5]) was “Active”. It also gave an IC50 (RAW264.7 [7]; Mus musculus, RAW264.7) of 4.61 µM.

`CC(=O)OCC1(O)CCC2C1CC(C)(C)CC1CC12C` (single isomer, unassigned; (+)) [listing 1 of 2 here] showed an IC50 at 24 h [6] greater than 10 µM and an IC50 (RAW264.7 [7]; Mus musculus, RAW264.7) of 6.64 µM.

For `C=CCC(C)(C)C[C@@H]1C(=O)CC[C@H]1C(=C)C`, the Activity (RAW264.7 [2]) was “Active”, the Activity (RAW264.7 [3]) was “Active” and the Activity (RAW264.7 [4]) was “Active”. For the same molecule, the Activity (RAW264.7 [1]) was “Active”, the IC50 at 24 h [6] was greater than 10 µM and the Activity (RAW264.7 [5]) was “Active”. The IC50 (RAW264.7 [7]; Mus musculus, RAW264.7) was 8.17 µM.

In the case of `CC(=O)OCC1(O)CCC2C1CC(C)(C)CC1CC12C` (single isomer, unassigned; (+)) [listing 2 of 2 here], the Activity (RAW264.7 [2]) is reported as “Active”, the Activity (RAW264.7 [3]) is reported as “Active” and the Activity (RAW264.7 [4]) is reported as “Active”. For the same molecule, the Activity (RAW264.7 [1]) was “Active” and the Activity (RAW264.7 [5]) was “Active”.

`CC(=O)OCC1(O)CCC2C1CC(C)(C)CC1CC12C` (single isomer, unassigned; (-)) [listing 2 of 2 here] showed an IC50 (RAW264.7 [7]; raw264.7) of 8.18 µM.
